How the values were obtained:
[1] = tested on: Human Primary Adipocytes; test: Free fatty acid levels in cultured human primary adipocytes, forskolin stimulated (Example 5); assay type: cell-based; conditions: test peptides 25 μM; forskolin 1 μM
Method: Human primary adipocytes were seeded at 5,000-100,000 cells per well on 96-well, 48-well, or 24-well plate in Pre-adipocyte Medium (Zen-Bio, Durham, N.C.) and grown to confluence at 37° C. in a humidified atmosphere of 5% CO2/95% air. Two days after confluence, cells were placed in Adipocyte Differentiation Medium (Zen-Bio, Durham, N.C.) and cultured for three additional days at 37° C. in a humidified atmosphere of 5% CO2/95% air. The culture media was then replaced with Adipocyte Maintenance Medium (Zen-Bio) and the cells were maintained for an additional 11-21 days at 37° C. in a humidified atmosphere of 5% CO2/95% air with partial medium replacement every other day. Following 14-24 days of differentiation, test peptides were added at a final concentration of 25 μM and incubated for 18-20 hours in Adipocyte Maintenance Medium at 37° C. in a humidified atmosphere of 5% CO2/95%. After 18-20 hours, the media was exchanged with fresh Adipocyte Maintenance Medium containing test peptides and incubated for 1 h at 37° C. in a humidified atmosphere of 5% CO2/95%. After 1 h media was exchanged with Assay Buffer (Zen-Bio) containing forskolin (1 μM) (added to all samples except untreated controls) and test peptides. Cells were incubated for a further 3 hours at 37° C. in a humidified atmosphere of 5% CO2/95%. Free fatty acid concentrations in the media were determined using a Free Fatty Acid Assay Kit (Zen-Bio) according to the manufacturer's instructions using a plate reader (540 nm). Absorbance values were corrected for untreated background and expressed relative to forskolin treated cells. Treatment with forskolin (1 μM) alone was used as the free fatty acid level stimulatory control. The relative standard deviation of the forskolin control was <20%. […] Free fatty acid levels for insulin (100 nM) treatment were <8% of the forskolin control value.

[2] = Stability in mouse plasma, peptides 100 uM (Example 14); assay type: in vitro ADME; conditions: mouse plasma 37° C., peptide 100 uM; for remaining at 0.25 h, 100 uM / remaining at 0.5 h, 100 uM / remaining at 1 h, 100 uM / remaining at 2 h, 100 uM / remaining at 3 h, 100 uM: pooled mouse plasma; for remaining at 0.25 h, 100 uM: 15 min, read-out: % Remaining at Each Time Point: 15 min; for remaining at 0.5 h, 100 uM: 30 min, read-out: % Remaining at Each Time Point: 30 min; for remaining at 1 h, 100 uM: 60 min, read-out: % Remaining at Each Time Point: 60 min; for remaining at 2 h, 100 uM: 120 min, read-out: % Remaining at Each Time Point: 120 min; for remaining at 3 h, 100 uM: 180 min, read-out: % Remaining at Each Time Point: 180 min
Method: Peptides (100 uM) were incubated in pooled mouse plasma at 37° C. and samples were removed and immediately analyzed for the concentration of intact peptide by LC/MS/MS over the course of 3 hours. The percent of peptide remaining in plasma at each time point was calculated relative to the initial peak area (Table 12).

[3] = tested on: Diet Induced Obese (DIO) mice; test: Body weight, blood glucose and fat mass in Diet Induced Obese mice, 10 days (Example 6); assay type: in vivo, Male C57BL/6 mice; conditions: male DIO mice; 10 days twice daily intraperitoneal 15 mg/kg; N = 8; mean
Method: Animals were randomized to treatment groups based on blood glucose levels and body weight. The peptides of the invention were administered to two groups of male DIG mice once or twice daily by subcutaneous or intraperitoneal injection at a dose of 15 mg/kg/dose for 10 days (N=8 animals per treatment group). An additional group of male DIG mice (n=8) received vehicle (water or saline) alone. Body weight, blood glucose levels and food intake were monitored. Body mass distribution (fat vs lean) was determined by quantitative whole body NMR prior to dosing and at the end of dosing.

[4] = tested on: 3T3-L1 Adipocytes; test: Free fatty acid levels in cultured mouse 3T3-L1 adipocytes, isoproterenol stimulated (Example 2); assay type: cell-based; conditions: test peptides 25 μM; isoproterenol 1 nM
How it was run: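 Release of free fatty acids, read at 540 nm, was stimulated with 1 nM isoproterenol for 3 h in mouse 3T3-L1 adipocytes (12–17 days of differentiation). Cells were pre-exposed to 25 μM peptide for 18–20 h plus 1 h, with peptide kept in during stimulation. Values are background-subtracted and normalised to isoproterenol alone.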

[5] = tested on: 3T3-L1 Adipocytes; test: Free fatty acid levels in cultured mouse 3T3-L1 adipocytes, forskolin stimulated (Example 3); assay type: cell-based; conditions: test peptides 25 μM; forskolin 1 μM
Method: Mouse 3T3-L1 cells were seeded at 1,000-20,000 cells per well on 96-well, 48-well, or 24-well plates in Pre-adipocyte Medium (Zen-Bio, Durham, N.C.) and grown to confluence at 37° C. in a humidified atmosphere of 5% CO2/95% air. Two days after confluence, cells were placed in Adipocyte Differentiation Medium (Zen-Bio, Durham, N.C.) and cultured for three additional days at 37° C. in a humidified atmosphere of 5% CO2/95% air. The culture media was then replaced with Adipocyte Maintenance Medium (Zen-Bio) and the cells were maintained for an additional 9-14 days at 37° C. in a humidified atmosphere of 5% CO2/95% air with partial medium replacement every other day. Following 12-17 days of differentiation, test peptides were added at a final concentration of 25 μM and incubated for 18-20 hours in Adipocyte Maintenance Medium at 37° C. in a humidified atmosphere of 5% CO2/95%. After 18-20 hours, the media was exchanged with fresh Adipocyte Maintenance Medium containing test peptides and incubated for 1 h at 37° C. in a humidified atmosphere of 5% CO2/95%. After 1 h media was exchanged with Assay Buffer (Zen-Bio) containing forskolin (1 μM) (added to all samples except untreated controls) and test peptides. Cells were incubated for a further 3 hours at 37° C. in a humidified atmosphere of 5% CO2/95%. Free fatty acid concentrations in the media were determined using a Free Fatty Acid Assay Kit (Zen-Bio) according to the manufacturer's instructions using a plate reader (540 nm). Absorbance values were corrected for untreated background and expressed relative to forskolin treated cells. Treatment with forskolin (1 μM) alone was used as the free fatty acid level stimulatory control. The relative standard deviation of the forskolin control was <10%. […] Free fatty acid levels for insulin (100 nM) treatment were <9% of the forskolin control value.

| Substance | Free Fatty Acid Levels in Human Primary Adipocytes Expressed as a Percent of Forskolin Control: Percent of Control Value [1] [%] | % Remaining at Each Time Point: 0 min [2] [%] | remaining at 0.25 h, 100 uM [2] [%] | remaining at 0.5 h, 100 uM [2] [%] | remaining at 1 h, 100 uM [2] [%] | remaining at 2 h, 100 uM [2] [%] | remaining at 3 h, 100 uM [2] [%] | Difference from Vehicle Control: Decrease from Baseline in Blood Glucose [3] [mg/dL] | Difference from Vehicle Control: Decrease from Baseline in Body Weight (%) [3] [%] | Difference from Vehicle Control: Decrease from Baseline in Fat Mass [3] [g] | Free Fatty Acid Levels in 3T3-L1 Adipocytes Expressed as a Percent of Isoproterenol Control: Percent of Control Value [4] [%] | Free Fatty Acid Levels in 3T3-L1 Adipocytes Expressed as a Percent of Forskolin Control: Percent of Control Value [5] [%] |
| --- | --- | --- | --- | --- | --- | --- | --- | --- | --- | --- | --- | --- |
| H-MRWQEMGYIFYPAKLR-OH [compound 18] | 101 | 100 | 30.8 | 24 | 19.4 | 9.02 | 4.53 | 1.52 | −0.80 | -0.65 |  |  |
| H-MRWQEMGYIFYPRALR-OH [compound 19] | 113 | 100 | 18.8 | 18.2 | 8.52 | 1.82 | 0.22 | -14.5 | −3.27 | -2.34 | 66.0 |  |
| H-MRWQEMGYIFYPRN-OH [compound 203] | 75.2 |  |  |  |  |  |  |  |  |  | 52.9 | 54.5 |
| H-MRWQEMGYIFYPRQ-OH [compound 204] | 94.3 |  |  |  |  |  |  |  |  |  | 38.8 | 57.3 |
| H-MRWQEMGYIFYPRQLR-OH [compound 214] | 89.9 |  |  |  |  |  |  |  |  |  | 52.3 | 50.2 |
| H-MRWQEMNYIFYPRALR-OH [compound 218] | 75.4 |  |  |  |  |  |  |  |  |  | 41.0 | 43.6 |
| H-RWQEMGYIFYPR-OH [compound 205] | 94.5 |  |  |  |  |  |  |  |  |  | 71.5 | 64.5 |
| H-RWQEMGYIFYPRALR-OH [compound 215] | 102 | 100 | 71.2 | 37.1 | 42.1 | 15.4 | 6.98 | 16.4 | 2.31 | 0.67 | 27.2 | 37.4 |
| H-RWQEMGYIFYPRN-OH [compound 206] | 100 |  |  |  |  |  |  |  |  |  | 53.8 | 50.6 |
| H-RWQEMGYIFYPRNLR-OH [compound 216] | 110 |  |  |  |  |  |  |  |  |  | 36.3 | 50.1 |
| H-RWQEMGYIFYPRQ-OH [compound 207] | 108 |  |  |  |  |  |  |  |  |  | 44.6 | 51.6 |
| H-RWQEMGYIFYPRQLR-OH [compound 217] | 108 | 100 | 71 | 33.2 | 53.6 | 22.8 | 14.1 | -9.75 | −2.54 | -0.89 | 27.3 | 40.3 |

— US11753445B2, “Therapeutic peptides” (COHBAR, INC., priority 2016, dated 2023)
